In patent US9924721B2 (priority 2013, dated 2018):
Marks after values point to notes of the source that are not given here.

What was measured:
Pythium ultimum = Pythium ultimum in vitro cell test; type: cell-based; conditions: 4 days incubation
Method: Pythium ultimum In Vitro Cell Test
• Solvent: DMSO • Culture medium: 14.6 g anhydrous D-glucose (VWR), 7.1 g Mycological Peptone (Oxoid), 1.4 g granulated Yeast Extract (Merck), QSP liter • Inoculum: mycelial suspension
Fungicides were solubilized in DMSO and the solution used to prepare the required range of concentrations. The final concentration of DMSO used in the assay was ≤1%.
Inoculum was prepared from a pre-culture of P. ultimum grown in liquid medium by homogenization using a blender. The concentration of ground mycelium in the inoculum was estimated and adjusted to the desired optical density (OD).
Fungicides were evaluated for their ability to inhibit mycelium growth in liquid culture assay. The compounds were added in the desired concentrations to culture medium containing the mycelial suspension. After 4 days of incubation, the fungicidal efficacy of compounds was determined by spectrometric measurement of mycelium growth. Inhibition of fungal growth was determined by comparing the absorbance values in wells containing the fungicides with the absorbance in control wells without fungicides.

Phytophthora infestans = test: microbe, parasite or virus in culture; type: cell-based; conditions: 8 days incubation
[1] = pH 2.7
[2] = 0.25 μg/mL of active ingredient

Structure (SMILES) | Eff. % (inhibition of fungal growth) (Pythium ultimum; 20 μg/mL of active ingredient) [%] | Eff. % (inhibition of fungal growth) (Phytophthora infestans; [2]) [%] | Log P [1] | Eff. % (inhibition of fungal growth) (Phytophthora infestans; 20 μg/mL of active ingredient) [%] | Eff. % (inhibition of fungal growth) (Pythium ultimum; of active ingredient) [%]
C#CCOc1cccc(F)c1C1CC(c2csc(C3CCN(C(=O)C(C(=O)OCC)n4nc(C(F)F)cc4C(F)F)CC3)n2)=NO1 (stereo not drawn) [Example I-04] | 92 | 100 | 3.57^[a] |  | 
CCOC(=O)C(C(=O)N1CCC(c2nc(C3=NOC(c4ccccc4OS(C)(=O)=O)C3)cs2)CC1)n1nc(C(F)(F)F)nc1C (stereo not drawn) [Example I-06] | 94 |  | 3.14^[a] | 100 | 
C#CCOc1cccc(F)c1C1CC(c2csc(C3CCN(C(=O)C(C(=O)OC(C)C)n4nc(C(F)F)cc4C(F)F)CC3)n2)=NO1 (stereo not drawn) [Example I-07] |  | 100 | 3.81^[a] |  | 97
C#CCOc1ccccc1C1CC(c2csc(C3CCN(C(=O)C(C(=O)OC(C)C)n4nc(C(F)F)cc4C(F)F)CC3)n2)=NO1 (stereo not drawn) [Example I-09] | 97 |  | 3.93^[a] | 98 | 
CCCCCC(CC)OC(=O)C(C(=O)N1CCC(c2nc(C3=NOC(c4ccccc4OS(C)(=O)=O)C3)cs2)CC1)n1nc(C(F)F)cc1C(F)F (stereo not drawn) [Example I-10] |  |  | 4.96^[a] | 97 | 
CCOC(=O)C(C(=O)N1CCC(c2nc(C3=NOC(c4ccccc4OS(C)(=O)=O)C3)cs2)CC1)n1nc(C(F)F)cc1C(F)F (stereo not drawn) [Example I-11] | 97 |  | 3.28^[a] | 100 | 
CC(C)OC(=O)C(C(=O)N1CCC(c2nc(C3=NOC(c4ccccc4C=O)C3)cs2)CC1)n1nc(C(F)F)cc1C(F)F (stereo not drawn) [Example I-13] |  | 94 | 3.70^[a] |  | 
CC(C)OC(=O)C(C(=O)N1CCC(c2nc(C3=NOC(c4c(F)cccc4OS(C)(=O)=O)C3)cs2)CC1)n1nc(C(F)F)cc1C(F)F (stereo not drawn) [Example I-17] |  | 100 | 3.49^[a] |  | 99
CCOC(=O)C(C(=O)N1CCC(c2nc(C3=NOC(c4ccccc4OS(C)(=O)=O)C3)cs2)CC1)n1nc(C(F)(F)F)cc1C (stereo not drawn) [Example I-19] |  |  | 3.42^[a] | 100 | 
CCOC(=O)C(C(=O)N1CCC(c2nc(C3=NOC(c4ccccc4OS(C)(=O)=O)C3)cs2)CC1)n1nc(C)nc1C (stereo not drawn) [Example I-20] | 87 |  | 2.24^[a] | 100 | 
CC(C)OC(=O)C(Br)C(=O)N1CCC(c2nc(C3=NOC(c4c(F)cccc4OS(C)(=O)=O)C3)cs2)CC1 (stereo not drawn) [Example I-23] |  | 100 | 2.97^[a] |  | 
CCOC(=O)C(Br)C(=O)N1CCC(c2nc(C3=NOC(c4ccccc4C=O)C3)cs2)CC1 (stereo not drawn) [Example I-25] |  |  | 2.82^[a] | 100 | 
C#CCOc1cccc(F)c1C1CC(c2csc(C3CCN(C(=O)C(Br)C(=O)OCC)CC3)n2)=NO1 (stereo not drawn) [Example I-26] | 100 |  | 2.98^[a] | 100 | 
CCOC(=O)C(Br)C(=O)N1CCC(c2nc(C3=NOC(c4c(F)cccc4OS(C)(=O)=O)C3)cs2)CC1 (stereo not drawn) [Example I-27] | 100 |  | 2.72^[a] | 100 | 
CCCCCC(CC)OC(=O)C(Br)C(=O)N1CCC(c2nc(C3=NOC(c4ccccc4C=O)C3)cs2)CC1 (stereo not drawn) [Example I-28] |  |  | 4.83^[a] | 100 | 
CCOC(=O)C(Br)C(=O)N1CCC(c2nc(C3=NOC(c4ccccc4OS(C)(=O)=O)C3)cs2)CC1 (stereo not drawn) [Example I-33] | 99 |  | 2.72^[a] | 100 | 
CCOC(=O)C(Br)C(=O)N1CCC(c2nc(C3=NOC(c4c(Cl)cccc4OS(C)(=O)=O)C3)cs2)CC1 (stereo not drawn) [Example I-34] | 94 |  | 2.92^[a] | 100 | 
C#CCOc1cccc(F)c1C1CC(c2csc(C3CCN(C(=O)CC(=O)OC(CC)CCCCC)CC3)n2)=NO1 (stereo not drawn) [Example I-40] | 93 |  | 4.42^[a] | 100 | 
CCCCCC(CC)OC(=O)CC(=O)N1CCC(c2nc(C3=NOC(c4ccccc4OS(C)(=O)=O)C3)cs2)CC1 (stereo not drawn) [Example I-45] |  |  | 4.07^[a] | 100 | 
COCCOC(=O)CC(=O)N1CCC(c2nc(C3=NOC(c4ccccc4OS(C)(=O)=O)C3)cs2)CC1 (stereo not drawn) [Example I-46] | 97 |  | 2.11^[a] | 100 | 
CC(C)OC(=O)CC(=O)N1CCC(c2nc(C3=NOC(c4c(F)cccc4OS(C)(=O)=O)C3)cs2)CC1 (stereo not drawn) [Example I-47] | 93 |  | 2.53^[a] | 100 | 
CCOC(=O)CC(=O)N1CCC(c2nc(C3=NOC(c4c(Cl)cccc4OS(C)(=O)=O)C3)cs2)CC1 (stereo not drawn) [Example I-49] | 88 |  | 2.53^[a] | 100 | 

Structure (SMILES) | Eff. % (inhibition of fungal growth) (Pythium ultimum; 20 μg/mL of active ingredient) [%] | Eff. % (inhibition of fungal growth) (Phytophthora infestans; [2]) [%] | Log P [1] | Eff. % (inhibition of fungal growth) (Phytophthora infestans; 20 μg/mL of active ingredient) [%] | Eff. % (inhibition of fungal growth) (Pythium ultimum; of active ingredient) [%]
CCOC(=O)CC(=O)N1CCC(c2nc(C3=NOC(c4ccccc4OS(C)(=O)=O)C3)cs2)CC1 (stereo not drawn) [Example I-50] | 94 |  | 2.30^[a] | 98 | 
C#CCOc1ccccc1C1CC(c2csc(C3CCN(C(=O)CC(=O)OC(C)C)CC3)n2)=NO1 (stereo not drawn) [Example I-52] | 86 |  | 2.94^[a] | 87 | 
CCOC(=O)CC(=O)N1CCC(c2nc(C3=NOC(c4ccccc4C=O)C3)cs2)CC1 (stereo not drawn) [Example I-53] |  |  | 2.34^[a] | 100 | 
CCCCCC(CC)OC(=O)CC(=O)N1CCC(c2nc(C3=NOC(c4ccccc4C=O)C3)cs2)CC1 (stereo not drawn) [Example I-55] | 70 |  | 4.27^[a] | 100 | 
CC(C)OC(=O)CC(=O)N1CCC(c2nc(C3=NOC(c4ccccc4C=O)C3)cs2)CC1 (stereo not drawn) [Example I-56] | 84 |  | 2.57^[a] | 100 | 
CC(C)OC(=O)CC(=O)N1CCC(c2nc(C3=NOC(c4ccccc4OS(C)(=O)=O)C3)cs2)CC1 (stereo not drawn) [Example I-58] |  |  | 2.56^[a] | 100 | 
C#CCOc1cccc(Cl)c1C1CC(c2csc(C3CCN(C(=O)C(C(=O)OCc4ccccc4)n4nc(C(F)F)cc4C(F)F)CC3)n2)=NO1 (stereo not drawn) [Example I-59] |  | 100 | 4.28^[a] |  | 
CS(=O)(=O)Oc1cccc(Cl)c1C1CC(c2csc(C3CCN(C(=O)C(C(=O)OCc4ccccc4)n4nc(C(F)F)cc4C(F)F)CC3)n2)=NO1 (stereo not drawn) [Example I-61] |  | 100 | 3.98^[a] |  | 
C#CCOc1ccccc1C1CC(c2csc(C3CCN(C(=O)C(C(=O)OCc4ccccc4)n4nc(C(F)F)cc4C(F)F)CC3)n2)=NO1 (stereo not drawn) [Example I-62] |  | 100 | 4.16^[a] |  | 
C#CCOc1cccc(Cl)c1C1CC(c2csc(C3CCN(C(=O)C(C(=O)OC(C)(C)C)n4nc(C(F)F)cc4C(F)F)CC3)n2)=NO1 (stereo not drawn) [Example I-63] |  | 100 | 4.31^[a] |  | 90
CC(C)(C)OC(=O)C(C(=O)N1CCC(c2nc(C3=NOC(c4c(Cl)cccc4OS(C)(=O)=O)C3)cs2)CC1)n1nc(C(F)F)cc1C(F)F (stereo not drawn) [Example I-64] |  | 100 | 4.00^[a] |  | 
C#CCOc1ccccc1C1CC(c2csc(C3CCN(C(=O)C(C(=O)OC(C)(C)C)n4nc(C(F)F)cc4C(F)F)CC3)n2)=NO1 (stereo not drawn) [Example I-65] |  | 100 | 4.16^[a] |  | 91
CC(C)(C)OC(=O)C(C(=O)N1CCC(c2nc(C3=NOC(c4ccccc4OS(C)(=O)=O)C3)cs2)CC1)n1nc(C(F)F)cc1C(F)F (stereo not drawn) [Example I-66] |  | 100 | 3.74^[a] |  | 
C#CCOc1cccc(Cl)c1C1CC(c2csc(C3CCN(C(=O)C(Br)C(=O)OC(C)(C)C)CC3)n2)=NO1 (stereo not drawn) [Example I-71] |  | 100 | 3.84^[a] |  | 
CS(=O)(=O)Oc1cccc(Cl)c1C1CC(c2csc(C3CCN(C(=O)CC(=O)OCc4ccccc4)CC3)n2)=NO1 (stereo not drawn) [Example I-76] |  |  | 3.12^[a] |  | 
C#CCOc1ccccc1C1CC(c2csc(C3CCN(C(=O)CC(=O)OCc4ccccc4)CC3)n2)=NO1 (stereo not drawn) [Example I-77] |  |  | 3.30^[a] |  | 
C#CCOc1cccc(Cl)c1C1CC(c2csc(C3CCN(C(=O)CC(=O)OCc4ccccc4)CC3)n2)=NO1 (stereo not drawn) [Example I-78] |  | 88 | 3.45^[a] |  | 
CC(C)(C)OC(=O)CC(=O)N1CCC(c2nc(C3=NOC(c4c(Cl)cccc4OS(C)(=O)=O)C3)cs2)CC1 (stereo not drawn) [Example I-79] |  |  | 3.04^[a] |  | 
C#CCOc1cccc(Cl)c1C1CC(c2csc(C3CCN(C(=O)CC(=O)OC(C)(C)C)CC3)n2)=NO1 (stereo not drawn) [Example I-80] |  | 100 | 3.36^[a] |  | 
CC(C)(C)OC(=O)CC(=O)N1CCC(c2nc(C3=NOC(c4ccccc4OS(C)(=O)=O)C3)cs2)CC1 (stereo not drawn) [Example I-81] |  |  | 2.80^[a] |  | 
C#CCOc1ccccc1C1CC(c2csc(C3CCN(C(=O)CC(=O)OC(C)(C)C)CC3)n2)=NO1 (stereo not drawn) [Example I-82] |  |  | 3.22^[a] |  | 
